For this experiment, the target named is T1, BTK (Homo sapiens, UniProt Q06187).
T1 construct: The GM01501.3 cell line endogenously expresses BTK with a HiBiT fusion tag via CRISPR knock-in at its C-terminal region; endogenous in cells; host or cells: GM01501.3 (GM01501 cells engineered by CRISPR knock-in of HiBiT at the BTK locus)
In words: BTK degradation assay using the HiBiT Method (Nano-Glo HiBiT Lytic Assay, GM01501.3 cells). The format is cell-based. The settings on record: HiBiT Degradation on GM01501.3 BTK @ 6 hours. An outline of the steps:
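Degradation read-out: HiBiT luminescence after lytic reagent addition, giving DC50. Compounds dosed from 10 μM in 11 half-log steps (duplicate) onto GM01501.3 cells, whose endogenous BTK carries a C-terminal HiBiT knock-in tag; 6 h exposure, 37 °C, 5% CO2.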
In general terms: HiBiT is a short tag that completes a luciferase, so light tracks the accessible tagged protein.

T1 sequence (Q06187 whole entry, the tested form may be a part): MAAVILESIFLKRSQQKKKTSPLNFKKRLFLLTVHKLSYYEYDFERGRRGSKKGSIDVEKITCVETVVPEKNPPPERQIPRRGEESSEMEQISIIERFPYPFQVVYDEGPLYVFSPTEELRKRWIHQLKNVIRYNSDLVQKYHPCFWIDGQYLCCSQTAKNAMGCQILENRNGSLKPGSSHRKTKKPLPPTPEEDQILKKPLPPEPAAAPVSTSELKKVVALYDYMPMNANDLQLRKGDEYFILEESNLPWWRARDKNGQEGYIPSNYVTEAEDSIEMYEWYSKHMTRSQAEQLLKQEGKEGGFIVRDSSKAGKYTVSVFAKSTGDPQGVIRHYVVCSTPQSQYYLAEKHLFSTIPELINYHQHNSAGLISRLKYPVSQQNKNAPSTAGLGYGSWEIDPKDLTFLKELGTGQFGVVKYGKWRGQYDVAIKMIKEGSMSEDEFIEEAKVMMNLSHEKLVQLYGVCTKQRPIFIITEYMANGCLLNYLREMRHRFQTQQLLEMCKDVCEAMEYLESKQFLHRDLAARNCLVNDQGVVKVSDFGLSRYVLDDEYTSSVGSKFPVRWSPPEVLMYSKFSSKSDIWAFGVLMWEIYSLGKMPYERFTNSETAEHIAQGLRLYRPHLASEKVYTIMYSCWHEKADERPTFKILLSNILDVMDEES

As usually defined, the DC50 is the concentration giving 50% degradation. Read a low DC50 as a more potent degrader. Turning to `COc1cc(CN2CCC(c3ccc(C4CCC(=O)NC4=O)cc3)CC2)ccc1OCCOc1cccc(-c2cc3c(-c4ccc(CNC(=O)c5noc(C(C)(C)C)n5)c(C)c4)ncnn3c2)c1` (centres unmarked) [Example 204], the 50% degradation concentration (DC50) fell in the range of 100 to 500 nM.

Regarding `Cc1cc(-c2ncnn3cc(CCN4CCC(c5ccn6c(N7CCC(=O)NC7=O)cnc6c5)CC4)cc23)ccc1CNC(=O)c1noc(C(C)(C)C)n1` [Example 269, 5-(tert-butyl)-N-(4-(6-(2-(4-(3-(2,4-dioxotetrahydropyrimidin-1(2H)-yl)imidazo[1,2-a]pyridin-7-yl)piperidin-1-yl)ethyl)pyrrolo[2,1-f][1,2,4]triazin-4-yl)-2-methylbenzyl)-1,2,4-oxadiazole-3-carboxamide], the DC50 was under 100 nM.

Molecule `Cc1cc(-c2ncnn3cc(N4CCN(C(=O)CC(C)(C)CNC(=O)c5ccc(OC6CCC(=O)NC6=O)cc5)CC4)cc23)ccc1CNC(=O)c1noc(C(C)(C)C)n1` (centres unmarked) [Example 192, 5-(tert-butyl)-N-(4-(6-(4-(4-(4-((2,6-dioxopiperidin-3-yl)oxy)benzamido)-3,3-dimethylbutanoyl)piperazin-1-yl)pyrrolo[2,1-f][1,2,4]triazin-4-yl)-2-methylbenzyl)-1,2,4-oxadiazole-3-carboxamide] came in with a DC50 of under 100 nM.

`Cc1cc(-c2ncnn3cc(-c4ccc(CN5CCC(c6ccc(NC7CCC(=O)NC7=O)cc6)CC5)cc4)cc23)ccc1CNC(=O)c1cccnc1` (centres unmarked) [Example 90, N-[[4-[6-[4-[[4-[4-[(2,6-dioxo-3-piperidyl)amino]phenyl]-1-piperidyl]methyl]phenyl]pyrrolo[2,1-f][1,2,4]triazin-4-yl]-2-methyl-phenyl]methyl]pyridine-3-carboxamide] yielded a DC50 of under 100 nM.

Molecule `Cc1cc(-c2ncnn3cc(-c4ccc(CN5CCC(c6ccc(N[C@@H]7CCC(=O)NC7=O)cc6F)CC5)cc4)cc23)ccc1CNC(=O)c1noc(C(C)(C)C)n1` [Example 26, (R)-5-(tert-butyl)-N-(4-(6-(4-((4-(4-((2,6-dioxopiperidin-3-yl)amino)-2-fluorophenyl)piperidin-1-yl)methyl)phenyl)pyrrolo[2,1-f] [1,2,4]triazin-4-yl)-2-methylbenzyl)-1,2,4-oxadiazole-3-carboxamide] had a DC50 of under 100 nM.

For the molecule `Cc1cc(-c2ncnn3cc(-c4ccn5cc(CN6CCC(c7ccc(C8CCC(=O)NC8=O)cc7)CC6)nc5c4)cc23)ccc1CNC(=O)c1noc(C(C)(C)C)n1` (centres unmarked) [Example 211, 5-(tert-butyl)-N-(4-(6-(2-((4-(4-(2,6-dioxopiperidin-3-yl)phenyl)piperidin-1-yl)methyl)imidazo[1,2-a]pyridin-7-yl)pyrrolo[2,1-f][1,2,4]triazin-4-yl)-2-methylbenzyl)-1,2,4-oxadiazole-3-carboxamide], the 50% degradation concentration (DC50) was under 100 nM.

In the case of `Cc1cc(-c2ncnn3cc(N4CCN(C(=O)CCCCNC(=O)c5ccc(OC6CCC(=O)NC6=O)cc5)CC4)cc23)ccc1CNC(=O)c1noc(C(C)(C)C)n1` (centres unmarked) [Example 173, 5-(tert-butyl)-N-(4-(6-(4-(5-(4-((2,6-dioxopiperidin-3-yl)oxy)benzamido)pentanoyl)piperazin-1-yl)pyrrolo[2,1-f][1,2,4]triazin-4-yl)-2-methylbenzyl)-1,2,4-oxadiazole-3-carboxamide], the 50% degradation concentration (DC50) was in the range of 100 to 500 nM.

For the molecule `Cc1cc(-c2ncnn3cc(CCCCN4CCC(c5ccc(N6CCC(=O)NC6=O)cc5)CC4)cc23)ccc1CNC(=O)c1noc(C(C)(C)C)n1` [Example 129, 5-tert-butyl-N-[[4-[6-[4-[4-[4-(2,4-dioxohexahydropyrimidin-1-yl)phenyl]-1-piperidyl]butyl]pyrrolo[2,1-f][1,2,4]triazin-4-yl]-2-methyl-phenyl]methyl]-1,2,4-oxadiazole-3-carboxamide], the DC50 was under 100 nM.

`CC(C)(C)c1nc(C(=O)NCc2ccc(-c3ncnn4cc(-c5ccc(CN6CCOCC6Cc6ccc(OC7CCC(=O)NC7=O)cc6)cn5)cc34)cc2F)no1` (centres unmarked) [Example 238, 5-(tert-butyl)-N-(4-(6-(5-((3-(4-((2,6-dioxopiperidin-3-yl)oxy)benzyl)morpholino)methyl)pyridin-2-yl)pyrrolo [2,1-f][1,2,4]triazin-4-yl)-2-fluorobenzyl)-1,2,4-oxadiazole-3-carboxamide] returned a DC50 of under 100 nM.

`Cc1cc(-c2ncnn3cc(-c4cn5c(CN6CCC(c7ccc(C8CCC(=O)NC8=O)cc7)CC6)cnc5s4)cc23)ccc1CNC(=O)c1noc(C(C)(C)C)n1` (centres unmarked) [Example 210, 5-(tert-butyl)-N-(4-(6-(5-((4-(4-(2,6-dioxopiperidin-3-yl)phenyl)piperidin-1-yl)methyl)imidazo[2,1-b]thiazol-2-yl)pyrrolo[2,1-f][1,2,4]triazin-4-yl)-2-methylbenzyl)-1,2,4-oxadiazole-3-carboxamide] showed a half-maximal degradation concentration (DC50) of 100 to 500 nM.

`Cc1cc(-c2ncnn3cc(-c4ccc(CN5CCC(c6ccc(NC7CCC(=O)NC7=O)cc6)CC5)c(Cl)c4)cc23)ccc1CNC(=O)c1noc(C(C)(C)C)n1` (centres unmarked) [Example 15, 5-tert-butyl-N-[[4-[6-[3-chloro-4-[[4-[4-[(2,6-dioxo-3-piperidyl)amino]phenyl]-1-piperidyl]methyl]phenyl]pyrrolo[2,1-f][1,2,4]triazin-4-yl]-2-methyl-phenyl]methyl]-1,2,4-oxadiazole-3-carboxamide] registered a DC50 of under 100 nM.

For the molecule `Cc1cc(-c2ccnc3cc(CCCCN4CCC(c5ccc6c(N7CCC(=O)NC7=O)nn(C)c6c5)CC4)nn23)ccc1CNC(=O)c1noc(C(C)(C)C)n1` [Example 300, 5-(tert-butyl)-N-(4-(2-(4-(4-(3-(2,4-dioxotetrahydropyrimidin-1(2H)-yl)-1-methyl-1H-indazol-6-yl)piperidin-1-yl)butyl)pyrazolo[1,5-a]pyrimidin-7-yl)-2-methylbenzyl)-1,2,4-oxadiazole-3-carboxamide], the DC50 is under 100 nM.

Turning to `Cc1cc(-c2ncnn3cc(-c4ccc(CN5CCC(c6ccc(NC7CCC(=O)NC7=O)nc6)CC5)cc4)cc23)ccc1CNC(=O)c1noc(C(C)(C)C)n1` (centres unmarked) [Example 13, 5-tert-butyl-N-[[4-[6-[4-[[4-[6-[(2,6-dioxo-3-piperidyl)amino]-3-pyridyl]-1-piperidyl]methyl]phenyl]pyrrolo[2,1-f][1,2,4]triazin-4-yl]-2-methyl-phenyl]methyl]-1,2,4-oxadiazole-3-carboxamide], the 50% degradation concentration (DC50) was under 100 nM.

Molecule `CC(C)(C)c1nc(C(=O)NCc2ccc(-c3ncnn4cc(-c5ccc(CN6CCC(Cc7cccc(OC8CCC(=O)NC8=O)c7)CC6)cn5)cc34)cc2F)no1` (centres unmarked) [Example 231, 5-(tert-butyl)-N-(4-(6-(5-((4-(3-((2,6-dioxopiperidin-3-yl)oxy)benzyl)piperidin-1-yl)methyl)pyridin-2-yl)pyrrolo[2,1-f][1,2,4]triazin-4-yl)-2-fluorobenzyl)-1,2,4-oxadiazole-3-carboxamide] came in with a 50% degradation concentration (DC50) of 100 to 500 nM.

As to `Cc1cc(-c2ncnn3cc(OC[C@@H](F)CN4CCN(c5ccc(NC6CCC(=O)NC6=O)cn5)CC4)cc23)ccc1CNC(=O)c1noc(C(C)(C)C)n1` (stereo partly drawn) [Example 296, 5-(tert-butyl)-N-(4-(6-((2S)-3-(4-(5-((2,6-dioxopiperidin-3-yl)amino)pyridin-2-yl)piperazin-1-yl)-2-fluoropropoxy)pyrrolo[2,1-f][1,2,4]triazin-4-yl)-2-methylbenzyl)-1,2,4-oxadiazole-3-carboxamide], the DC50 is under 100 nM.

For `Cc1cc(-c2ncnn3cc(-c4ccc5c(c4)CN(CCCc4ccc(NC6CCC(=O)NC6=O)cc4)CC5)cc23)ccc1CNC(=O)c1noc(C(C)(C)C)n1` (centres unmarked) [Example 59, 5-tert-butyl-N-[[4-[6-[2-[3-[4-[(2,6-dioxo-3-piperidyl)amino]phenyl]propyl]-3,4-dihydro-1H-isoquinolin-7-yl]pyrrolo[2,1-f][1,2,4]triazin-4-yl]-2-methyl-phenyl]methyl]-1,2,4-oxadiazole-3-carboxamide], the 50% degradation concentration (DC50) is under 100 nM.

As for `Cc1cc(-c2ncnn3cc(-c4ccc(C(=O)NCCc5ccc(NC6CCC(=O)NC6=O)cc5)cc4)cc23)ccc1CNC(=O)c1noc(C(C)(C)C)n1` (centres unmarked) [Example 198, 5-(tert-butyl)-N-(4-(6-(4-((4-((2,6-dioxopiperidin-3-yl)amino)phenethyl)carbamoyl)phenyl)pyrrolo[2,1-f] [1,2,4]triazin-4-yl)-2-methylbenzyl)-1,2,4-oxadiazole-3-carboxamide], the half-maximal degradation concentration (DC50) was under 100 nM.

`Cc1cc(-c2ncnn3cc(-c4ccc(OCCN5CCC(c6ccc(CN7CCC(=O)NC7=O)cc6)CC5)cc4)cc23)ccc1CNC(=O)c1noc(C(C)(C)C)n1` [Example 106, 5-tert-butyl-N-[[4-[6-[4-[2-[4-[4-[(2,4-dioxohexahydropyrimidin-1-yl)methyl]phenyl]-1-piperidyl]ethoxy]phenyl]pyrrolo[2,1-f][1,2,4]triazin-4-yl]-2-methyl-phenyl]methyl]-1,2,4-oxadiazole-3-carboxamide] registered a half-maximal degradation concentration (DC50) of under 100 nM.

Turning to `COc1ccc(C(=O)NCc2ccc(-c3ncnn4cc(-c5ccc(CN6CCC(c7ccc(NC8CCC(=O)NC8=O)cc7)CC6)cc5)cc34)cc2C)cc1` (centres unmarked) [Example 66, N-[[4-[6-[4-[[4-[4-[(2,6-dioxo-3-piperidyl)amino]phenyl]-1-piperidyl]methyl]phenyl]pyrrolo[2,1-f][1,2,4]triazin-4-yl]-2-methyl-phenyl]methyl]-4-methoxy-benzamide], the DC50 was under 100 nM.

The molecule `Cc1cc(-c2ccnn3cc(CCN4CCC(c5ccc(NC6CCC(=O)NC6=O)cc5)CC4)cc23)ccc1CNC(=O)c1noc(C(C)(C)C)n1` (centres unmarked) [Example 155, 5-tert-butyl-N-[[4-[6-[2-[4-[4-[(2,6-dioxo-3-piperidyl)amino]phenyl]-1-piperidyl]ethyl]pyrrolo[1,2-b]pyridazin-4-yl]-2-methyl-phenyl]methyl]-1,2,4-oxadiazole-3-carboxamide] returned a DC50 of under 100 nM.

The record behind these values is patent US20240287076A1, “COMPOUNDS FOR TARGETING DEGRADATION OF BRUTON'S TYROSINE KINASE” (BIOGEN MA INC., priority 2021, published 2024).
